In patent publication US20050228016A1, “TETRAHYDROQUINOLINES FOR MODULATING THE EXPRESSION OF EXOGENOUS GENES VIA AN ECDYSONE RECEPTOR COMPLEX” (priority 2002, published 2005):

Assays:
Gal4DBD/AaEcR (DEF) = biological target: T1, Gal4DBD/AaEcR (DEF) (Aedes aegypti, UniProt P49880); assay: cell-based; assay type: cell-based; details: 33 μM; 3T3 cells; 48 h; average of two wells
T1 construct: The wildtype D, E, and F domains from mosquito Aedes aegypti EcR; expressed in transfected cells; host or cells: 3T3 cells
Outline: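 Single-dose ligand testing at 33 μM, applied in serum medium after 4 h transfection. Host was 3T3 cells carrying Gal4DBD/AaEcR (DEF) plus a 5× GAL4 RE-driven firefly luciferase reporter (pFRLuc).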

[1] = test system: GAL4 DBD-CfEcR(DEF)/VP16AD-MmRXRE; details: CHO 13B3 clone, 48 h, average of two wells
From the text: GAL4 DBD-CfEcR(DEF)/VP16AD-MmRXRE: The wild-type D, E, and F domains from spruce budworm Choristoneura fumiferana EcR (“CfEcR-DEF”; SEQ ID NO: 1) were fused to a GAL4 DNA binding domain (“Gal4DBD1-147”; nucleotides 31 to 471 of SEQ ID NO: 2) and placed under the control of the SV40e promoter of pM vector (PT3119-5, Clontech, Palo Alto, Calif.). The D and E domains from Mus Musculus RXR (“MmRXR-DE”; SEQ ID NO: 22) were fused to the transactivation domain from VP16 (“VP16AD”; SEQ ID NO: 5) and placed under the control of the SV40e promoter of the pVP16 vector (PT3127-5, Clontech, Palo Alto, Calif.).
CHO cells were transiently transfected with transcription cassettes for GAL4 DBD-CfEcR(DEF) and for VP16AD-MmRXRE controlled by SV40e promoters. Stably transfected cells were selected using Hygromycin. Individually isolated CHO cell clones were transiently transfected with a GAL4 RE-luciferase reporter (pFR-Luc, Stratagene, La Jolla, Calif.). The 13B3 clone was selected using Zeocin.
Cells were trypsinized and diluted to a concentration of 2.5×10^4 cells mL. 100 μL of cell suspension was placed in each well of a 96 well plate and incubated at 37° C. under 5% CO2 for 24 h. Ligand stock solutions were prepared in DMSO and diluted 300 fold for all treatments.
Luciferase reporter gene expression was measured 48 h after cell treatment using Bright-Glo™ Luciferase Assay System from Promega (E2650). Luminescence was detected at room temperature using a Dynex MLX microtiter plate luminometer.
Each assay was conducted in two separate wells, and the two values were averaged. Fold inductions were calculated by dividing relative light units (“RLU”) in ligand treated cells with RLU in DMSO treated cells.

[2] = biological target: T2, Bombyx mori EcR (VP16-BmEcR, CVBE) (Bombyx mori, UniProt P49881); assay: Z3 assay (HEK-293 clone Z3 with CVBE and 6x EcRE LacZ, β-galactosidase reporter); assay type: cell-based; details: 48 h, average of two wells
T2 construct: expressed in transfected cells
T2 sequence (P49881 86-606): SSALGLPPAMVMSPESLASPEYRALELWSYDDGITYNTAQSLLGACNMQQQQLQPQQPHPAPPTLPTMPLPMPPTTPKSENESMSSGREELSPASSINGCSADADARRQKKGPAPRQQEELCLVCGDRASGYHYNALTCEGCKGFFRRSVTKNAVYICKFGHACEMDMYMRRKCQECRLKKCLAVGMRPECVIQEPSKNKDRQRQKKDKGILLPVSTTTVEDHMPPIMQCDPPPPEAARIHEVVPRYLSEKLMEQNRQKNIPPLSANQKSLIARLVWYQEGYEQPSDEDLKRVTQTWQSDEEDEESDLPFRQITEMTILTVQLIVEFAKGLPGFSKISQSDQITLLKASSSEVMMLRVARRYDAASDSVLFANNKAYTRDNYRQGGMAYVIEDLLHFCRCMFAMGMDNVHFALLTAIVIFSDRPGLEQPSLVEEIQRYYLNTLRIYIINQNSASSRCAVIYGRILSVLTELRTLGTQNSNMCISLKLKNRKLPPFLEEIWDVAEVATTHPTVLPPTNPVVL

T1 sequence (P28704 286-520 A311G/G315S/G445S/I449V): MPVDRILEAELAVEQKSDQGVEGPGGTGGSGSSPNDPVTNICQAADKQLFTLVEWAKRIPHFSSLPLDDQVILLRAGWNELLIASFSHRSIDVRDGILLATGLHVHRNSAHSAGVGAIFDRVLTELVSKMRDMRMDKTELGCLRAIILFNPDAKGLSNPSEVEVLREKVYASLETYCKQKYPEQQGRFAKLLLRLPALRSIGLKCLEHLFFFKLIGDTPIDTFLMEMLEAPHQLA
T1 sequence (P49880 405-776): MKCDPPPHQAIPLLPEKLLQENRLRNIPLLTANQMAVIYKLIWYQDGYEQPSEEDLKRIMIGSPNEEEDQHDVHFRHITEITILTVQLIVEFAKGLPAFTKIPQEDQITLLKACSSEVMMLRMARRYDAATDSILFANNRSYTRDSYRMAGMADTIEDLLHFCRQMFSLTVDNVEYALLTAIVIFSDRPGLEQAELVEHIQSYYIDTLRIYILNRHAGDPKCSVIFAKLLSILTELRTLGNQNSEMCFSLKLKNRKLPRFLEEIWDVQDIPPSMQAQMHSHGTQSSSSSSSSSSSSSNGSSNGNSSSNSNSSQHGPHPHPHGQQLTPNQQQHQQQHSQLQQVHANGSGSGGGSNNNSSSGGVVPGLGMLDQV

Compound	Fold Induction Average, AA_3T3V1 Assay 33 μM (Gal4DBD/AaEcR (DEF))	Fold Induction Average, 13B3V1 Assay 33 μM [1]	Fold Induction Average, Z3V1 Assay 33 μM [2]
Cc1ccc(C(=O)N2c3ccccc3C(Nc3ccccc3)CC2C)cc1 (mixture of isomers) [Compound I-39]	182 fold	1 fold	4 fold
Cc1ccc(C(=O)N2c3ccccc3C(Nc3ccccc3Cl)CC2C)cc1 (mixture of isomers) [Compound I-41]	2 fold	1 fold	1 fold
C[C@H]1C[C@H](Nc2ccccc2)c2ccccc2N1C(=O)c1ccc(F)c(F)c1 (relative stereo) [Compound I-15]	132 fold	1 fold	20 fold
Cc1ccc(C(=O)N2c3ccccc3[C@@H](Nc3ccccc3)C[C@@H]2C)cc1F (relative stereo) [Compound I-16]	376 fold	1 fold	27 fold
C[C@H]1C[C@H](Nc2ccccc2)c2ccccc2N1C(=O)c1ccc(C(F)(F)F)c(F)c1 (relative stereo) [Compound I-17]	135 fold	1 fold	9 fold
Cc1ccc(N[C@H]2C[C@H](C)N(C(=O)c3ccc(C)c(F)c3)c3ccc(C)cc32)cc1 (relative stereo) [Compound I-22]	132 fold	1 fold	3 fold
C[C@H]1C[C@H](Nc2ccc(F)cc2)c2cc(F)ccc2N1C(=O)c1ccc(F)c(F)c1 (relative stereo) [Compound I-26]	124 fold	95 fold	152 fold
C[C@H]1C[C@H](Nc2ccc(F)cc2)c2cc(F)ccc2N1C(=O)c1ccc(C(F)(F)F)c(F)c1 (relative stereo) [Compound I-27]	112 fold	6 fold	119 fold
Cc1ccc(N[C@@H]2C[C@H](C)N(C(=O)c3ccc(C)c(F)c3)c3ccc(C)cc32)cc1 (relative stereo) [Compound I-28]	1 fold	1 fold	1 fold
C[C@H]1C[C@@H](Nc2ccccc2)c2ccccc2N1C(=O)c1ccc2c(c1)OCO2 (relative stereo) [Compound I-31]	48 fold	1 fold	1 fold
COc1ccc(C=CC(=O)N2c3ccccc3[C@@H](Nc3ccccc3)C[C@@H]2C)cc1OC (relative stereo) [Compound I-146]	4 fold	1 fold	1 fold
COc1ccc(C(=O)N2c3ccc(C)cc3[C@H](Nc3ccc(C)cc3)C[C@@H]2C)cc1 (stereo in doubt) [Compound I-152]	1 fold	2 fold	1 fold
Cc1ccc(NC2CC(C)N(C(=O)c3ccc4c(c3)OCO4)c3ccc(C)cc32)cc1 (centres unmarked) [Compound I-34]	1 fold	1 fold	1 fold
COc1cccc(C(=O)N2c3ccccc3C(Nc3ccccc3)CC2C)c1C (centres unmarked) [Compound I-50]	21 fold	1 fold	115 fold
COc1cccc(C(=O)N2c3ccc(F)cc3C(Nc3ccc(F)cc3)CC2C)c1C (centres unmarked) [Compound I-58]	124 fold	30 fold	147 fold
CC(=O)N(c1ccccc1)C1CC(C)N(C(=O)C=Cc2ccccc2)c2ccccc21 (centres unmarked) [Compound I-119]	1 fold	3 fold	1 fold

Compound	Fold Induction Average, AA_3T3V1 Assay 33 μM (Gal4DBD/AaEcR (DEF))	Fold Induction Average, 13B3V1 Assay 33 μM [1]	Fold Induction Average, Z3V1 Assay 33 μM [2]
COc1ccc(C(=O)N(c2ccccc2)C2CC(C)N(C(=O)c3ccc(Cl)cc3)c3ccccc32)cc1 (centres unmarked) [Compound I-120]	249 fold	1 fold	
Cc1ccc(NC2CC(C)N(C(=O)c3ccc(F)cc3)c3ccc(C)cc32)cc1 (centres unmarked) [Compound I-124]	1 fold	3 fold	
COc1ccc(C(=O)N2c3ccccc3C(N(C(=O)c3cccs3)c3ccccc3)CC2C)cc1 (centres unmarked) [Compound I-131]	162 fold	1 fold	4 fold
CCCCCc1ccc(C(=O)N2c3ccccc3C(Nc3ccccc3)CC2C)cc1 (centres unmarked) [Compound I-138]	5 fold	1 fold	1 fold
COc1cccc(N(C(C)=O)C2CC(C)N(C(=O)c3ccccc3)c3ccccc32)c1 (centres unmarked) [Compound I-140]	1 fold	2 fold	1 fold
Cc1ccc(NC2CC(C)N(C(=O)c3ccc(Cl)cc3)c3ccc(C)cc32)cc1 (centres unmarked) [Compound I-144]	73 fold	4 fold	1 fold
CC1CC(Nc2ccccc2)c2ccccc2N1C(=O)c1cccc(Br)c1 (centres unmarked) [Compound I-148]	47 fold	1 fold	19 fold
CC(=O)N(c1ccc(C)cc1)C1CC(C)N(C(=O)c2ccccc2)c2ccccc21 (centres unmarked) [Compound I-149]	1 fold	3 fold	
Cc1ccc(NC2CC(C)N(C(=O)c3cccc([N+](=O)[O-])c3)c3ccc(C)cc32)cc1 (centres unmarked) [Compound I-154]	1 fold	4 fold	1 fold
CC1CC(N(C(=O)C2CC2)c2ccccc2)c2ccccc2N1C(=O)C1CC1 (centres unmarked) [Compound I-155]	1 fold	1 fold	1 fold
CC1CC(Nc2ccccc2)c2ccccc2N1C(=O)c1cccc([N+](=O)[O-])c1 (centres unmarked) [Compound I-158]	207 fold	118 fold	18 fold
Cc1ccc(C(=O)N(c2ccccc2)C2CC(C)N(C(=O)c3ccc(Cl)cc3)c3ccccc32)cc1 (centres unmarked) [Compound I-161]	28 fold	1 fold	
CC1CC(Nc2ccccc2)c2ccccc2N1C(=O)C=Cc1ccccc1 (centres unmarked) [Compound I-163]	4 fold	26 fold	27 fold
CC(=O)N1c2ccccc2C(N(C(=O)c2ccccc2F)c2ccccc2)CC1C (centres unmarked) [Compound I-185]		1 fold	1 fold
Cc1ccc(N(C(=O)c2ccc3c(c2)OCO3)C2CC(C)N(C(=O)c3ccc4c(c3)OCO4)c3ccc(C)cc32)cc1 (centres unmarked) [Compound I-194]		1 fold	
